Assay results taken from patent publication EP4480960A1, “A R[…] ALPHA-1 ANTITRYPSIN GLYCOPROTEIN” (AATEC Medical GmbH, priority 2023, dated 2024).
Where a name gives a salt, the structure may show the parent alone.

Legend:
[1] = target: T1, human neutrophil elastase (Homo sapiens, UniProt P08246); experiment: Neutrophil Elastase activity assay (fluorogenic MEOSUC-Ala-Ala-Pro-Val-AMC substrate); assay type: biochemical; parameters: key to Neutrophil Elastase IC50 / Neutrophil Elastase IC90: - = inactive
T1 construct: purchased Merck Millipore 324681
T1 sequence (P08246 30-247 limits assumed): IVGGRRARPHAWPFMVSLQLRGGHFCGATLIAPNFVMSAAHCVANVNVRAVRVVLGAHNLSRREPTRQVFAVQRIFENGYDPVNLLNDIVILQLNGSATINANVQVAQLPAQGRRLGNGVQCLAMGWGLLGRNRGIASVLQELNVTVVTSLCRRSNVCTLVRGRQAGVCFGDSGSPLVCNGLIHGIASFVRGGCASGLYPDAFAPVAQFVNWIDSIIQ

[2] = target: recombinant human TMPRSS2 enzyme (CusaBio #YP023924HU) (human) (UniProt O15393); experiment: cell-based or functional assay
Chain of recombinant human TMPRSS2 enzyme (CusaBio #YP023924HU) (human) (O15393 106-492 limits assumed): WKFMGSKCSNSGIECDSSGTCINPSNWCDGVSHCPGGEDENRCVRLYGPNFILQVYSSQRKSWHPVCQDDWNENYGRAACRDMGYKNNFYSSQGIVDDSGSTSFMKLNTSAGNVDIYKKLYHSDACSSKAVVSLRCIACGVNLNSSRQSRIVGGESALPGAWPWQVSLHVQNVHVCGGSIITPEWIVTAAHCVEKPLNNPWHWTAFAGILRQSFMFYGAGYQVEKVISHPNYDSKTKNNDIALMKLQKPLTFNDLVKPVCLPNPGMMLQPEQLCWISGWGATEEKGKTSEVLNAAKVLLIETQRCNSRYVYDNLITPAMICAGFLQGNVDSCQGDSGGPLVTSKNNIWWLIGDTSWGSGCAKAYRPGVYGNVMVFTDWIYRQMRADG

[3] = 15 min preincubation at 37 °C, read after 5 minutes

Row | Molecule | Neutrophil Elastase IC50 [1, 3] | Neutrophil Elastase IC90 [1, 3] | inhibition of neutrophil elastase activity ([1]; result in words) | TMPRSS2 IC50 (fluorogenic substrate enzyme activity assay) [2]
1 | CN(C)C(=O)COC(=O)Cc1ccc(OC(=O)c2ccc(NC(=N)N)cc2)cc1 [Camostat mesylate] | - | - | did not inhibit | 
2 | NIBSC Standard Alpha-1-Antitrypsin, plasma derived (1st International standard) (#05/162 NIBSC) (from UniProt P01009 25-418) |  |  |  | 51.8 nM
3 | Prolastin (Grifols), human plasma-derived A1AT formulation (from UniProt P01009 25-418) |  |  |  | 79 nM
